Experimental data taken from patent publication US7666864B2, “Bicyclic nitroimidazole-substituted phenyl oxazolidinones” (priority 2008, dated 2010).
Values after ≈ are worked out from the molar mass of the structure shown. Where two headings read alike, the source gives them in different places.

Legend:
[1] = test system: Staphylococcus aureus ATCC 29213; assay: MIC against Staphylococcus aureus ATCC 29213, microbroth dilution (NCCLS); assay type: cell-based; conditions: for activity against Staphylococcus aureus ATCC 29213 (in words): Gram-positive species; for MIC: Staphylococcus aureus, ATCC29213, microbroth dilution, read-out: MIC S. aureus ATCC# 29213
[2] = test system: S. aureus ATCC# 29213 (Lzd-resistant); assay: microbe, parasite or virus in culture; assay type: cell-based, Staphylococcus aureus; conditions: for MIC: Staphylococcus aureus, ATCC29213, linezolid-resistant isogenic strain; for MIC against strain resistant to linezolid: linezolid-resistant S. aureus
[3] = test system: Mycobacterium tuberculosis H37Rv; assay: MIC against Mycobacterium tuberculosis H37Rv (method of Gruppo); assay type: cell-based; conditions: for MIC: Mycobacterium tuberculosis, H37RV
[4] = test system: Mycobacterium tuberculosis H37Rv; assay: Anaerobic activity against Mycobacterium tuberculosis H37Rv under Wayne conditions (method of Lenaerts); assay type: cell-based

| SMILES | activity against Staphylococcus aureus ATCC 29213 (in words) [1] | MIC [1] | MIC [2] | MIC against strain resistant to linezolid [2] | MIC [3] | M. tuberculosis H37Rv % survival at 10 ug/mL (Low O2) [4] | M. tuberculosis H37Rv % survival at 10 ug/mL (Low O2) ([4]; listed as linezolid) | fold less potent than PA-824, in vitro MIC [3] | fold less potent than linezolid, in vitro MIC [3] |
| --- | --- | --- | --- | --- | --- | --- | --- | --- | --- |
| CC(=O)NC[C@H]1CN(c2ccc(-c3cnc(O[C@@H]4COc5nc([N+](=O)[O-])cn5C4)nc3)c(F)c2)C(=O)O1 [Example 8, (S,S)—N-(3-{3-Fluoro-4-[2-(2-nitro-6,7-dihydro-5H-imidazo[2,1-b][1,3]oxazin-6-yloxy)-pyrimidin-5-yl]-phenyl}-2-oxo-oxazolidin-5-ylmethyl)-acetamide] | more potent than linezolid | 1 µg/mL (≈ 1.95 µM) | 8 µg/mL (≈ 15.6 µM) | 8 micg/mL | 1 µg/mL (≈ 1.95 µM) |  |  |  |  |
| CC(=O)NC[C@H]1CN(c2ccc(N3CCOCC3)c(F)c2)C(=O)O1 [Linezolid, linezolid, reference compound] |  | 2 µg/mL (≈ 5.93 µM) | 64 µg/mL (≈ 190 µM) | 64 micg/mL | 2 µg/mL (≈ 5.93 µM) | 28.2% | 28.2% |  |  |
| CC(=O)NC[C@H]1CN(c2ccc(OCC3(C)Cn4cc([N+](=O)[O-])nc4O3)c(F)c2)C(=O)O1 (stereo partly shown) [Example 50, N-{3-[3-Fluoro-4-(2-methyl-6-nitro-2,3-dihydro-imidazo[2,1-b]oxazol-2-ylmethoxy)-phenyl]-2-oxo-oxazolidin-5-ylmethyl}-acetamide] |  | 64 µg/mL (≈ 142 µM) |  |  | 4 µg/mL (≈ 8.9 µM) | 1.8% |  | 8 fold | 2 fold |
| O=[N+]([O-])c1cn2c(n1)OC[C@@H](OCc1ccc(OC(F)(F)F)cc1)C2 [PA-824, reference compound] |  | > 64 µg/mL | > 64 µg/mL |  | 0.5 µg/mL (≈ 1.39 µM) | 3.6% |  |  |  |
| CC(=O)NC[C@H]1CN(c2ccc(-c3ccc(CO[C@@H]4COc5nc([N+](=O)[O-])cn5C4)cc3)c(F)c2)C(=O)O1 [Example 31, (S,S)—N-{3-[2-Fluoro-4′-(2-nitro-6,7-dihydro-5H-imidazo[2,1-b][1,3]oxazin-6-yloxymethyl)-biphenyl-4-yl]-2-oxo-oxazolidin-5-ylmethyl}-acetamide] | more potent than linezolid | 1 µg/mL (≈ 1.9 µM) | 4 µg/mL (≈ 7.61 µM) | 4 micg/mL | 0.5 µg/mL (≈ 0.951 µM) |  |  |  |  |
